In patent publication US9980953B2, “Combined composition for preventing or treating cancer comprising a benzophenone thiazole derivatives as a VDA and topoisomerase inhibitor” (CHONG KUN DANG PHARMACEUTICAL CORP., priority 2016, dated 2018):

Columns and labels:
Colo205 xenograft = assay: Anti-cancer effect in a Colo205 xenograft mouse model; format: in vivo, BALB/c-nu/nu male mice; settings: irinotecan 20 mg/kg once per 4 days injection; for size of tumor compared to administration group of an excipient: formula 1 4 mg/kg every day oral, during administration period (10 weeks); for dead mice: observed for 85 days, formula 1 4 mg/kg daily oral
Description: A human colorectal cancer cell line, Colo205 was purchased from ATCC (USA). The Colo205 cell line was maintained with RPMI1640 (Gibco, USA) including 10% fetal bovine serum (FBS; Gibco, Grand Island, N.Y., USA) and 1% antibiotics (Gibco, USA).
The human colorectal carcinoma, Colo205 cell was subcutaneously administered in BALB/c-nu/nu male mice (5×10^6 cell/head), and after grouping in order to making an average size of tumor 165˜167 mm^3, used in experiments.
A compound of formula 1 was prepared by the preparation method disclosed in International Laid-open Patent Publication WO 2009-119980, and prepared at 0.4 mg/ml concentration by dissolving with distilled water.
Irinotecan (Boryung, Korea) was prepared at 2 mg/ml concentration by diluting with 5% glucose saline solution. The solution to be used was prepared on the day of use, and remained solution was discarded.
The anti-cancer effect of the compound of formula 1 and irinotecan was estimated in the Colo205 xenograft model. Experimental groups were divided into the following administration groups. • Control group: vehicle • Single administration group of the compound of formula 1: the compound of formula 1 (4 mg/kg, every day, oral) • Single administration group of irinotecan: irinotecan (20 mg/kg, once per 4 days, injection) • Coadministration group: the compound of formula 1 (4 mg/kg, every day, oral), irinotecan (20 mg/kg, once per 4 days, injection)
(§1) All the experimental groups were orally and intraperitoneally administered for 10 weeks. Toxicity was observed by measuring weight of mice, and the growth of tumor was measured using calipers during experimental period. The volume of tumor was calculated according to the following calculation formula. tumor volume=(length×width^2)/2
The data of size of tumor, regression of tumor, and body weight changes was tested using Bartlett's test at significance level α=0.05, and as a result of the test, data having no significance was tested using one-way analysis of variance at significance level α=0.05, and data having significance was tested using Kruskal-Wallis test at significance level α=0.05.
Statistical analysis between each group was performed using GraphPad PRISM® Version 5.0 (GraphPad Software, USA).
Vehicle administration group was euthanized at the day 43 because cancer became too big.

HCT116 xenograft = assay: Anti-cancer effect in a HCT116 xenograft mouse model; format: in vivo, Athymic nude mouse (Hsd:Athymic Nude-Foxn1nu) male mice; settings: formula 1 5 mg/kg once a week injection, irinotecan 20 mg/kg once per 4 days injection, intraperitoneal, 4 weeks
Protocol: A human colorectal cancer cell line, HCT116 was purchased from ATCC (USA). The HCT116 cell line was maintained with RPMI1640 (Gibco, USA) including 10% fetal bovine serum (FBS; Gibco, USA).
The human colorectal carcinoma, HCT116 cell was subcutaneously administered in Athymic nude mouse (Hsd:Athymic Nude-Foxn1^nu) male mice (5×10^6 cell/head), and used in experiments when the size of tumor became 150-200 mm^3.
A compound of formula 1 was prepared by the preparation method disclosed in International Laid-open Patent Publication WO 2009-119980, and prepared at 0.5 mg/ml concentration by dissolving with 0.9% saline solution.
Irinotecan (Jeilpharm, Korea) was prepared at 2 mg/ml concentration by diluting with 5% dextrose solution.
The anti-cancer effect of the compound of formula 1 and irinotecan was estimated in the HCT116 xenograft model. […]
as §1, with “were” for “were orally and”, “4” for “10”, “volume=(length×width^2)/2 […]” for “volume=(length×width^2)/2”

| Structure (SMILES) | size of tumor compared to administration group of an excipient (Colo205 xenograft) | dead mice (Colo205 xenograft) | size of tumor compared to administration group of an excipient (HCT116 xenograft) |
| --- | --- | --- | --- |
| COc1cc(C(=O)c2ccc(-c3csc(NC(=O)[C@@H](N)C(C)C)n3)cc2-n2cncn2)cc(OC)c1OC [compound of formula 1, (S)-N-(4-(3-(1H-1,2,4-triazol-1-yl) -4-(3,4,5-trimethoxybenzoyl)phenyl)thiazol-2-yl)-2-amino-3-methylbutanamide] | significantly decreased | 8 mice | significantly decreased |
| CCc1c2c(nc3ccc(OC(=O)N4CCC(N5CCCCC5)CC4)cc13)-c1cc3c(c(=O)n1C2)COC(=O)[C@]3(O)CC [irinotecan] | significantly decreased | no dead subject | significantly decreased |
